Our source for the IC50 values is patent publication US10562912B2 (C&C Research Laboratories, priority 2013, dated 2020).

What all share (format): cell-based
For one assay, the target named is T1, STAT3 (Homo sapiens, UniProt P40763).
T1 construct: plasmid pSTAT3-TA-luc), which contains a stably operating STAT3 promoter; endogenous in cells
The assay can be described thus: STAT3 reporter gene assay (luciferase), LNCaP stable cell line (pSTAT3-TA-luc), IL-6 stimulation. Summed up:
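LNCaP cells stably carrying pSTAT3-TA-luc, in RPMI1640 with 3% DCC-FBS, were treated with compound and then stimulated with 10 ng/mL IL-6 for 24–48 h at 37 °C. Luciferase activity was measured in lysates. A parallel plate measured viability by CellTiter-Glo, with stimulated 0.1% DMSO wells as the positive control.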

For a further assay, the system named is MDA-MB-231. The assay can be described thus: Cell growth inhibition assay, breast cancer cell line MDA-MB-231. The following applies: Homo sapiens; MDA-MB-231 breast cancer cell line, 5,000 cells/well.
Another assay concerns LNCaP. As to the kind of experiment: Cell growth inhibition assay, prostate cancer cell line LNCaP (medium with 10 ng/mL IL-6). The following applies: Homo sapiens, medium supplemented with 10 ng/mL of IL-6, 10,000 cells/well.

Broadly, the IC50 is the concentration needed to halve the response being measured. Low readings indicate inhibition by little substance, high ones a need for much substance.

T1 sequence (P40763 whole entry): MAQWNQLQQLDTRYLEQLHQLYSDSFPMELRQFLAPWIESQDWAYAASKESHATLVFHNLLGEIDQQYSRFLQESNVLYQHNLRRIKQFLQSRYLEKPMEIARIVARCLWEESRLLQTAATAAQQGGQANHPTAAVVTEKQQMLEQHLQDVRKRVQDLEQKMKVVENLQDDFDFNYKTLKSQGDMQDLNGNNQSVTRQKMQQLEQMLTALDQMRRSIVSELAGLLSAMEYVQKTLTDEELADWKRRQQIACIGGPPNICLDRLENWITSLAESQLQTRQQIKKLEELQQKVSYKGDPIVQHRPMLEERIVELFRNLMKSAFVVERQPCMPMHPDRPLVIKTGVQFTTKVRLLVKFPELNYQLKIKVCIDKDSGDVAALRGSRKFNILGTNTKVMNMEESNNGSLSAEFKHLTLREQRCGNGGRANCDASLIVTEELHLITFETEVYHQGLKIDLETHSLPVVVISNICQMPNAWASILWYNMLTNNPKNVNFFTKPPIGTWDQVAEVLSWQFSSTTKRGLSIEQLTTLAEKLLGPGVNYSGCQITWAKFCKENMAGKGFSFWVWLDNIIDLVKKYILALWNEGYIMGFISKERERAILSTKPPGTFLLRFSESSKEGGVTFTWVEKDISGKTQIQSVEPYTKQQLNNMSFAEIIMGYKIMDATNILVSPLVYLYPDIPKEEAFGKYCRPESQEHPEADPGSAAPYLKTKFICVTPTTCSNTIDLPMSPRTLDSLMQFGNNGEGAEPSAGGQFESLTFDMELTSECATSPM

As to `COc1cc(NC(=O)c2cc3ccc(NS(C)(=O)=O)cc3[nH]2)cc(-c2ccc(F)cc2F)c1` [Example 314, N-(2′,4′-difluoro-5-methoxy-[1,1′-biphenyl]-3-yl)-6-(methylsulfonamido)-1H-indole-2-carboxamide], the half-inhibitory concentration (IC50) against STAT3 amounted to 4.5 µM; with MDA-MB-231, 0.37 µM; in the assay with LNCaP, 3.7 µM.
As for `COc1cc(NC(=O)c2sc3cc(NS(C)(=O)=O)ccc3c2C)cc(-c2ccc(F)cc2F)c1` [Example 316, N-(2′,4′-difluoro-5-methoxy-[1,1′-biphenyl]-3-yl)-3-methyl-6-(methylsulfonamido)benzo[b]thiophene-2-carboxamide], the 50% inhibitory concentration (IC50) was determined as 3.6 µM on STAT3, 4.6 µM with MDA-MB-231 and 7 µM with LNCaP.
For `COc1cc(NC(=O)c2cc3cc(NS(C)(=O)=O)ccc3s2)cc(-c2ccc(F)cc2F)c1` [Example 317, N-(2′,4′-difluoro-5-methoxy-[1,1′-biphenyl]-3-yl)-5-(methylsulfonamido)benzo[b]thiophene-2-carboxamide] the same measures were 0.28 µM, 0.019 µM and 0.37 µM.
As to `CNC(=O)c1cc(NC(=O)c2cc3ccc(NS(C)(=O)=O)cc3[nH]2)cc(-c2ccc(F)cc2F)c1` [Example 318, N-(2′,4′-difluoro-5-(methylcarbamoyl)-[1,1′-biphenyl]-3-yl)-6-(methylsulfonamido)-1H-indole-2-carboxamide], the IC50 is 8.1 µM against STAT3, over 10 µM in the assay with MDA-MB-231 and over 10 µM in the assay with LNCaP.
On to `CN(C)C(=O)c1cc(NC(=O)c2cc3ccc(NS(C)(=O)=O)cc3[nH]2)cc(-c2ccc(F)cc2F)c1` [Example 319, N-(5-(dimethylcarbamoyl)-2′,4′-difluoro-[1,1′-biphenyl]-3-yl)-6-(methylsulfonamido)-1H-indole-2-carboxamide], for which the IC50 at STAT3, in the assay on MDA-MB-231 and in the assay with LNCaP was over 10 µM each time.
Consider `CS(=O)(=O)Nc1ccc2cc(C(=O)Nc3cc(C(=O)N4CCCCC4)cc(-c4ccc(F)cc4F)c3)[nH]c2c1` [Example 320, N-(2′,4′-difluoro-5-(piperidine-1-carbonyl)-[1,1′-biphenyl]-3-yl)-6-(methylsulfonamido)-1H-indole-2-carboxamide], for which the figures for the IC50 against STAT3, with MDA-MB-231 and in the assay with LNCaP were 6.2 µM, over 10 µM and over 10 µM, respectively.
`CS(=O)(=O)Nc1ccc2cc(C(=O)Nc3cc(C(=O)N4CCOCC4)cc(-c4ccc(F)cc4F)c3)[nH]c2c1` [Example 321, N-(2′,4′-difluoro-5-(morpholine-4-carbonyl)-[1,1′-biphenyl]-3-yl)-6-(methylsulfonamido)-1H-indole-2-carboxamide]: the IC50 was 8.2 µM against STAT3, over 10 µM in the assay with MDA-MB-231 and over 10 µM with LNCaP.
As to `CS(=O)(=O)Nc1ccc2cc(C(=O)Nc3cc(-c4ccc(F)nc4)cc(-c4ccc(F)cc4F)c3)[nH]c2c1` [Example 349, N-(2′,4′-difluoro-5-(6-fluoropyridin-3-yl)-[1,1′-biphenyl]-3-yl)-6-(methylsulfonamido)-1H-indole-2-carboxamide], the 50% inhibitory concentration (IC50) stood at 0.48 µM against STAT3, 0.32 µM in the assay with MDA-MB-231 and 2.3 µM in the assay with LNCaP.
The corresponding values for `CC(C)(C)OC(=O)n1cccc1-c1cc(NC(=O)c2cc3ccc(NS(C)(=O)=O)cc3[nH]2)cc(-c2ccc(F)cc2F)c1` [Example 350, tert-butyl 2-(2′,4′-difluoro-5-(6-(methylsulfonamido)-1H-indole-2-carboxamido)-[1,1′-biphenyl]-3-yl)-1H-pyrrole-1-carboxylate] are 1.5 µM, 2.3 µM and 6.5 µM.
In the case of `CS(=O)(=O)Nc1ccc2cc(C(=O)Nc3cc(-c4cc[nH]n4)cc(-c4ccc(F)cc4F)c3)[nH]c2c1` [Example 351, N-(2′,4′-difluoro-5-(1H-pyrazol-3-yl)-[1,1′-biphenyl]-3-yl)-6-(methylsulfonamido)-1H-indole-2-carboxamide], the IC50 against STAT3 is 0.3 µM; with MDA-MB-231, 9.9 µM; with LNCaP it was over 10 µM.
`CS(=O)(=O)Nc1ccc2cc(C(=O)Nc3cc(-c4ccc[nH]4)cc(-c4ccc(F)cc4F)c3)[nH]c2c1` [Example 352, N-(2′,4′-difluoro-5-(1H-pyrrol-2-yl)-[1,1′-biphenyl]-3-yl)-6-(methylsulfonamido)-1H-indole-2-carboxamide]: the IC50 was determined as 0.82 µM against STAT3, 2.4 µM in the assay with MDA-MB-231 and 7.6 µM in the assay on LNCaP.
The corresponding values for `Cn1cccc1-c1cc(NC(=O)c2cc3ccc(NS(C)(=O)=O)cc3[nH]2)cc(-c2ccc(F)cc2F)c1` [Example 353, N-(2′,4′-difluoro-5-(1-methyl-1H-pyrrol-2-yl)-[1,1′-biphenyl]-3-yl)-6-(methylsulfonamido)-1H-indole-2-carboxamide] are 0.76 µM, 0.44 µM and 2.4 µM.
Regarding `CS(=O)(=O)Nc1ccc2cc(C(=O)Nc3cc(-c4cccs4)cc(-c4ccc(F)cc4F)c3)[nH]c2c1` [Example 354, N-(2′,4′-difluoro-5-(thiophen-2-yl)-[1,1′-biphenyl]-3-yl)-6-(methylsulfonamido)-1H-indole-2-carboxamide], the half-maximal inhibitory concentration (IC50) at STAT3 came to 0.33 µM; with MDA-MB-231, 0.71 µM; in the assay on LNCaP, 5.7 µM.
For `CS(=O)(=O)Nc1ccc2cc(C(=O)Nc3cc(-c4ccsc4)cc(-c4ccc(F)cc4F)c3)[nH]c2c1` [Example 355, N-(2′,4′-difluoro-5-(thiophen-3-yl)-[1,1′-biphenyl]-3-yl)-6-(methylsulfonamido)-1H-indole-2-carboxamide] the same measures were 0.21 µM, 0.28 µM and 1.8 µM.
For the compound `CS(=O)(=O)Nc1ccc2cc(C(=O)Nc3cc(-c4ccncc4)cc(-c4ccc(F)cc4F)c3)[nH]c2c1` [Example 356, N-(2′,4′-difluoro-5-(pyridin-4-yl)-[1,1′-biphenyl]-3-yl)-6-(methylsulfonamido)-1H-indole-2-carboxamide], the values for the IC50 against STAT3, in the assay on MDA-MB-231 and with LNCaP were 3.6 µM, 3.3 µM and 9.9 µM, respectively.
The corresponding values for `CS(=O)(=O)Nc1ccc2cc(C(=O)Nc3cc(-c4cccnc4)cc(-c4ccc(F)cc4F)c3)[nH]c2c1` [Example 357, N-(2′,4′-difluoro-5-(pyridin-3-yl)-[1,1′-biphenyl]-3-yl)-6-(methylsulfonamido)-1H-indole-2-carboxamide] are 1.7 µM, 1.2 µM and 6.6 µM.
For `CS(=O)(=O)Nc1ccc2cc(C(=O)Nc3cc(-c4ccc(C(F)(F)F)nc4)cc(-c4ccc(F)cc4F)c3)[nH]c2c1` [Example 358, N-(2′,4′-difluoro-5-(6-(trifluoromethyl)pyridin-3-yl)-[1,1′-biphenyl]-3-yl)-6-(methylsulfonamido)-1H-indole-2-carboxamide], the figures for the IC50 against STAT3, in the assay with MDA-MB-231 and in the assay on LNCaP were 1.7 µM, 1.2 µM and 8 µM, respectively.
For `CS(=O)(=O)Nc1ccc2cc(C(=O)Nc3cc(-c4ccc(C#N)nc4)cc(-c4ccc(F)cc4F)c3)[nH]c2c1` [Example 359, N-(5-(6-cyanopyridin-3-yl)-2′,4′-difluoro-[1,1′-biphenyl]-3-yl)-6-(methylsulfonamido)-1H-indole-2-carboxamide] the same measures were over 10 µM, 2.6 µM and over 10 µM.
For `CS(=O)(=O)Nc1ccc2cc(C(=O)Nc3cc(-c4cncnc4)cc(-c4ccc(F)cc4F)c3)[nH]c2c1` [Example 360, N-(2′,4′-difluoro-5-(pyrimidin-5-yl)-[1,1′-biphenyl]-3-yl)-6-(methylsulfonamido)-1H-indole-2-carboxamide], the values for the 50% inhibitory concentration (IC50) on STAT3, in the assay on MDA-MB-231 and with LNCaP were over 10 µM, 1.8 µM and over 10 µM, respectively.
Regarding `CS(=O)(=O)Nc1ccc2cc(C(=O)Nc3cc(-c4cnc(N)nc4)cc(-c4ccc(F)cc4F)c3)[nH]c2c1` [Example 361, N-(5-(2-aminopyrimidin-5-yl)-2′,4′-difluoro-[1,1′-biphenyl]-3-yl)-6-(methylsulfonamido)-1H-indole-2-carboxamide], the half-maximal inhibitory concentration (IC50) against STAT3, in the assay on MDA-MB-231 and in the assay on LNCaP was over 10 µM throughout.
For the compound `CS(=O)(=O)Nc1ccc2cc(C(=O)Nc3cc(-c4ccc(F)cc4F)cc(-c4ccc(F)cc4F)c3)[nH]c2c1` [Example 362, 6-(methylsulfonamido)-N-(2,2″,4,4″-tetrafluoro-[1,1′:3′,1″-terphenyl]-5′-yl)-1H-indole-2-carboxamide], the figures for the concentration for half-maximal inhibition (IC50) against STAT3, in the assay with MDA-MB-231 and in the assay with LNCaP were 0.72 µM, 0.69 µM and 2.6 µM, respectively.
With `CS(=O)(=O)Nc1ccc2cc(C(=O)Nc3cc(CC#N)cc(-c4ccc(F)cc4F)c3)[nH]c2c1` [Example 363, N-(5-(cyanomethyl)-2′,4′-difluoro-[1,1′-biphenyl]-3-yl)-6-(methylsulfonamido)-1H-indole-2-carboxamide], the IC50 at STAT3 came out at 1.3 µM; in the assay with MDA-MB-231, 0.88 µM; with LNCaP, 2.4 µM.
For `CS(=O)(=O)Nc1ccc2cc(C(=O)Nc3cc(-c4ccc(O)nc4)cc(-c4ccc(F)cc4F)c3)[nH]c2c1` [Example 364, N-(2′,4′-difluoro-5-(6-hydroxypyridin-3-yl)-[1,1′-biphenyl]-3-yl)-6-(methylsulfonamido)-1H-indole-2-carboxamide] the same measures were over 10 µM, over 10 µM and over 10 µM.
On to `C#Cc1cc(NC(=O)c2cc3ccc(NS(C)(=O)=O)cc3[nH]2)cc(-c2ccc(F)cc2F)c1` [Example 365, N-(5-ethynyl-2′,4′-difluoro-[1,1′-biphenyl]-3-yl)-6-(methylsulfonamido)-1H-indole-2-carboxamide], for which the concentration for half-maximal inhibition (IC50) against STAT3 amounted to 0.4 µM; with MDA-MB-231 it was 0.32 µM; with LNCaP it was 2.8 µM.
